In US20170119775A1, “TREATMENT OF COGNITIVE DISORDERS” (Algiax Pharmaceuticals GmbH, priority 2014, published 2017):

Experiments:
[1] = system: male Wistar rats; assay: Xylazine/ketamine-induced anesthesia test (surrogate measure of emesis); assay type: in vivo, rat; settings: for relative recovery time (duration of anesthesia, vehicle set at 100%), mean: 3.5 h before induction of anesthesia
Source text: The mechanism of the emetic response associated with PDE4-Is is thought to be a consequence of the inhibition of PDE4 in non-target tissues. It is believed that PDE4-Is produce a pharmacological response analogous to that of presynaptic α2-adrenoreceptor inhibition by elevating intracellular levels of cAMP in noradrenergic neurons. Therefore, by removing an inhibitory mechanism, PDE4-Is are thought to modulate the release of mediators including 5-HT, substance P and noradrenaline involved in the onset of the emetic reflex mediated at emetic brainstem centers. PDE4-Is have the ability to reverse α2-adrenoreceptor agonist-mediated anesthesia with xylazine/ketamine in rodents (Robichaud et al., 2002). This effect is very likely mediated at the locus coeruleus in the brain stem. This confirms the postulate that PDE4-Is have effects similar to those of a2-adrenoreceptor antagonists. Since rodents are non-vomiting species, the ability of a PDE4-I to shorten a2-adrenergic receptor-mediated xylazine/ketamine anesthesia is therefore used as well-established surrogate measure of emesis in rodents.
(§1) Twenty four 3-4 month old male Wistar rats (Charles River, Sulzfeld, Germany) were used (average body weight at the beginning of the study: 365 g). All animals were housed individually in standard green line Tecniplast IVC cages on sawdust bedding. The animals were housed on a reversed 12/12-h light/dark cycle (lights on from 19:00 h to 07:00 h) and had free access to food and water. The rats were housed and tested in the same room. A radio, playing softly, provided background noise in the room. All testing was performed between 09:00 h and 18:00 h.
AP-61 was dissolved in 0.5% methylcellulose (MC) and 2% Tween 80. […] (injection volume was 2 ml/kg). […] The emetic properties of the PDE4-I rolipram are already assessed (Bruno et al., 2011). In the current study rolipram was used as a reference compound for AP-61 and applied in at dosages of 0.1 and 0.3 mg/kg. Rolipram was dissolved in 0.5% MC and 2% tween 80 (injection volume 2 ml/kg, route of administration was p.o.). For the induction of anesthesia, 10 mg/kg ketamine (Eurovet Animal Health, The Netherlands) and 10 mg/kg xylazine (CEVA Santé Animale, The Netherlands) were used (both administered i.p.). All solutions were prepared daily.
Rats were anesthetized with a combination of xylazine and ketamine (both 10 mg/kg, i.p). Fifteen minutes after induction of the anesthesia, rats were treated with rolipram or vehicle (0.1 or 0.3 mg/kg, p.o.) and the animals were placed in a dorsal position. The restoration of the righting reflex, i.e. when the animal no longer remained on its back and turned itself spontaneously to the prone position, was used as an endpoint to determine the duration of anesthesia. Animals that were not anesthetized after 15 min were excluded from the analysis.
AP-61 reached peak concentration at 5 h after oral administration. Because of this, induction of anesthesia with the combination of xylazine and ketamine was done 3.5 h after oral administration of AP-61. Animals were then placed in a dorsal position. The time delay to the recovery of the righting reflex was used as an endpoint to measure the duration of the anesthesia. Again, animals that were not anesthetized after 15 min were excluded from the analysis.
The restoration of the righting reflex, i.e. when the animal no longer remained on its back and turned itself spontaneously to the prone position (standing on four paws), was used as an endpoint to determine the duration to the anesthesia. Each test day a vehicle group was included. Outliers were removed from the analysis (Dixon-test). Each daily vehicle was set at 100% while the other treatment conditions of that day were expressed as a percentage of the vehicle. The following formula was used:
Duration of anesthesia after drug treatment (min)×(100/mean of duration of anesthesia of vehicle treatment (min)) […]

[2] = system: male Wistar rats; assay: Object recognition task (ORT), natural forgetting, 24-h interval; assay type: in vivo, rat; settings: 24 h delay, mean (SEM)
Experimental: In example 1, the compound AP-61 a 7-(4-tert butyl-cyclohexyl)-imidazotriazione (a compound of the formula II) was tested in the ORT in 3-4 month old male Wistar rats using a 24-h interval between the trials to induce natural forgetting.
as §1, with “One group of twenty” for “Twenty”
AP-61 was dissolved in 0.5% methylcellulose (MC) and 2% Tween 80. The solutions were prepared daily. Doses of 0.01, 0.03 and 0.1 mg/kg of AP-61 or vehicle were administered p.o. (injection volume was 2 ml/kg), immediately after T1. […]
A testing session comprised two trials, each with durations of 3 min. […] The times spent in exploring each object during T1 and T2 were recorded manually with a personal computer. […]
The measures were the times spent by rats in exploring each object during T1 and T2. […] From these exploration times the following variables were calculated: e1, e2 and d2 (Table 1). […]

[3] = Plasma Tmax after oral administration; assay type: in vivo

Row | Structure (SMILES) | relative recovery time (duration of anesthesia, vehicle set at 100%), mean ([1]; AP61 0.03 mg/kg p.o.) | relative recovery time (duration of anesthesia, vehicle set at 100%), mean ([1]; AP61 0.1 mg/kg p.o.) | relative recovery time (duration of anesthesia, vehicle set at 100%), mean ([1]; AP61 3.0 mg/kg p.o.) | effect on duration of xylazine/ketamine-induced anesthesia compared with vehicle (summary) ([1]; AP-61 0.03-3.0 mg/kg p.o., all doses) | emetic properties / gastrointestinal toxicity (conclusion) ([1]; AP-61, all doses tested, within the effective dose range) | d2, discrimination index between the new and familiar objects for T2 ([2]; AP61 0.01 mg/kg p.o. immediately after T1) | d2, discrimination index between the new and familiar objects for T2 ([2]; AP61 0.1 mg/kg p.o. immediately after T1) | Tmax [3] | effect on duration of the xylazine/ketamine-induced anesthesia (summary) ([1]; oral rolipram, 2 mg/kg, 15 min after induction of anesthesia (so in the source))
1 | CCc1nc(C2CCC(C(C)(C)C)CC2)n2nc(-c3ccccc3)[nH]c(=O)c12 (stereo not drawn) [AP61, 7-(4-tert-butylcyclohexyl)-5-ethyl-2-phenylimidazo[5,1-f][1,2,4]triazin-4(3H)-one] | 97.16% | 107.16% | 108.37% | none of the doses led to a shortened duration | does not show any signs of gastrointestinal toxicity | 0.10 (0.09) | 0.01 (0.08) | 5 h | 
2 | COc1ccc(C2CNC(=O)C2)cc1OC1CCCC1 (stereo not drawn) [rolipram, reference compound] |  |  |  |  |  |  |  |  | significant reduction
